Laboratory results reported in article PMC6691401 (Journal of Medicinal Chemistry, 2019).
Where two headings read alike, the source gives them in different places. Blank lines part the entries; values can stand above or below the molecule they belong to.

Experiments:
Mab TrmD [1] = biological target: T1, Mab TrmD (Mycobacteroides abscessus, UniProt B1MDI3); test: Isothermal titration calorimetry (ITC); format: binding; conditions: for GE (CH2R^1): group efficiency of CH2R^1; for GE (R^1): group efficiency of R^1; for GE: group efficiency of the added group; for LE: ligand efficiency
T1 sequence (B1MDI3 entry or part of it): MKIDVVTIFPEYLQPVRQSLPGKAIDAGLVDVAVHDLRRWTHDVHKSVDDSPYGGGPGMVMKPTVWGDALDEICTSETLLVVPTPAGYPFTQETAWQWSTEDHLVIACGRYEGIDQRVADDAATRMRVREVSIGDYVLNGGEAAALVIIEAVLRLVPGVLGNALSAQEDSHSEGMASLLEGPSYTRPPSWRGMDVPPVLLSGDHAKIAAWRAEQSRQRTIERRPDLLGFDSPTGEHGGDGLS

Mab TrmD [2] = biological target: T1, Mab TrmD; conditions: ligand efficiency, previously reported, cited from earlier work

LE (Mab TrmD [1]; Table 5): 0.28 kcal mol^–1 per heavy atom
LE (Mab TrmD [1]): 0.28 kcal mol^–1 per heavy atom
SMILES: N#Cc1c(N)n[nH]c1-c1ccc2c(Cl)cn(Cc3cccnc3)c2c1 [Compound 27g, 3-Amino-5-(3-chloro-1-(pyridin-3-ylmethyl)-1H-indol-6-yl)-1H-pyrazole-4-carbonitrile]

GE (CH2R^1) (Mab TrmD [1]; Table 6): 0.36 kcal mol^–1 per heavy atom
SMILES: Nc1cc(-c2ccc3ccn(Cc4ccc(CN5CCCC5)cc4)c3c2)[nH]n1 [Compound 31a, 5-(1-(4-(Pyrrolidin-1-ylmethyl)benzyl)-1H-indol-6-yl)-1H-pyrazol-3-amine]
LE (Mab TrmD [2]; Table 6): 0.31 kcal mol^–1 per heavy atom

Kd (Mab TrmD [1]; Table 6): 70 ± 29 nM
LE (Mab TrmD [1]; Table 6): 0.31 kcal mol^–1 per heavy atom
SMILES: N#Cc1c(N)n[nH]c1-c1ccc2ccn(Cc3ccc(CN4CCCCC4)cc3)c2c1 [Compound 29b, 3-Amino-5-(1-(4-(piperidin-1-ylmethyl)benzyl)-1H-indol-6-yl)-1H-pyrazole-4-carbonitrile]

Kd (Mab TrmD [1]; Table 6): 100 ± 24 nM
LE (Mab TrmD [1]; Table 6): 0.28 kcal mol^–1 per heavy atom
LE (Mab TrmD [1]): 0.28 kcal mol^–1 per heavy atom
SMILES: CC(C)N1CCN(Cc2ccc(Cn3ccc4ccc(-c5[nH]nc(N)c5C#N)cc43)cc2)CC1 [Compound 29e, 3-Amino-5-(1-(4-((4-isopropylpiperazin-1-yl)methyl)benzyl)-1H-indol-6-yl)-1H-pyrazole-4-carbonitrile]

Kd (Mab TrmD [1]; Table 6): 710 ± 90 nM
GE (CH2R^1) (Mab TrmD [1]; Table 6): 0.28 kcal mol^–1 per heavy atom
LE (Mab TrmD [1]; Table 6): 0.29 kcal mol^–1 per heavy atom
SMILES: Nc1cc(-c2ccc3ccn(Cc4ccc(CN5CCCCC5)cc4)c3c2)[nH]n1 [Compound 31b, 5-(1-(4-(Piperidin-1-ylmethyl)benzyl)-1H-indol-6-yl)-1H-pyrazol-3-amine]

Kd (Mab TrmD [1]; Table 6): 2000 ± 310 nM
LE (Mab TrmD [1]; Table 6): 0.27 kcal mol^–1 per heavy atom
SMILES: Cc1c(N)n[nH]c1-c1ccc2ccn(Cc3ccc(CN4CCCC4)cc3)c2c1 [Compound 30a, 4-Methyl-5-(1-(4-(pyrrolidin-1-ylmethyl)benzyl)-1H-indol-6-yl)-1H-pyrazol-3-amine]

Kd (Mab TrmD [1]; Table 6): 190 ± 23 nM
LE (Mab TrmD [1]; Table 6): 0.30 kcal mol^–1 per heavy atom
LE (Mab TrmD [1]): 0.30 kcal mol^–1 per heavy atom
SMILES: N#Cc1c(N)n[nH]c1-c1ccc2ccn(Cc3ccc(CN4CCOCC4)cc3)c2c1 [Compound 29c, 3-Amino-5-(1-(4-(morpholinomethyl)benzyl)-1H-indol-6-yl)-1H-pyrazole-4-carbonitrile]

More lines, now with the values behind:

SMILES: N#Cc1c(N)n[nH]c1-c1ccc2ccn(Cc3ccc(CN4CCCC4)cn3)c2c1 [Compound 28, 3-Amino-5-(1-((5-(pyrrolidin-1-ylmethyl)pyridin-2-yl)methyl)-1H-indol-6-yl)-1H-pyrazole-4-carbonitrile]
GE (CH2R^1) (Mab TrmD [1]; Table 6): 0.17 kcal mol^–1 per heavy atom
LE (Mab TrmD [2]; Table 6): 0.32 kcal mol^–1 per heavy atom
LE (Mab TrmD [2]): 0.32 kcal mol^–1 per heavy atom

SMILES: N#Cc1c(N)n[nH]c1-c1ccc2ccn(Cc3ccccn3)c2c1 [Compound 26f, 3-Amino-5-(1-(pyridin-2-ylmethyl)-1H-indol-6-yl)-1H-pyrazole-4-carbonitrile]
GE (R^1) (Mab TrmD [1]; Table 4): 0.20 kcal mol^–1 per heavy atom
GE (Mab TrmD [1]): 0.95 kcal mol^–1 per heavy atom
LE (Mab TrmD [2]; Table 4): 0.36 kcal mol^–1 per heavy atom
LE (Mab TrmD [2]): 0.36 kcal mol^–1 per heavy atom

SMILES: COC(=O)COc1cccc(COC(=O)c2cn[nH]c2)c1 [Compound 8, 3-(2-Methoxy-2-oxoethoxy)benzyl 1H-Pyrazole-4-carboxylate]
LE (Mab TrmD [1]; Table 2): 0.32 kcal mol^–1 per heavy atom
LE (Mab TrmD [1]): 0.32 kcal mol^–1 per heavy atom

SMILES: CN1CCCCC1Cn1ccc2ccc(-c3[nH]nc(N)c3C#N)cc21 (centres unmarked) [Compound 26n, 3-Amino-5-(1-((1-methylpiperidin-2-yl)methyl)-1H-indol-6-yl)-1H-pyrazole-4-carbonitrile]
GE (R^1) (Mab TrmD [1]; Table 5): 0.16 kcal mol^–1 per heavy atom
LE (Mab TrmD [1]; Table 5): 0.34 kcal mol^–1 per heavy atom
LE (Mab TrmD [1]): 0.34 kcal mol^–1 per heavy atom

SMILES: COc1cc(COC(=O)c2cn[nH]c2)cc(Cc2cccnc2)c1 [Compound 15]
LE (Mab TrmD [1]; Table 2): 0.28 kcal mol^–1 per heavy atom
LE (Mab TrmD [1]): 0.28 kcal mol^–1 per heavy atom

SMILES: CN1CCN(Cc2ccc(Cn3ccc4ccc(-c5[nH]nc(N)c5C#N)cc43)cc2)CC1 [Compound 29d, 3-Amino-5-(1-(4-((4-methylpiperazin-1-yl)methyl)benzyl)-1H-indol-6-yl)-1H-pyrazole-4-carbonitrile]
LE (Mab TrmD [2]; Table 6): 0.30 kcal mol^–1 per heavy atom
LE (Mab TrmD [2]): 0.30 kcal mol^–1 per heavy atom

SMILES: N#Cc1c(N)n[nH]c1-c1ccc2ccn(Cc3ccncc3)c2c1 [Compound 26l, 3-Amino-5-(1-(pyridin-4-ylmethyl)-1H-indol-6-yl)-1H-pyrazole-4-carbonitrile]
fold improvement in binding affinity (decrease of Kd) relative to 26f (Mab TrmD [1]): 4 fold
GE (R^1) (Mab TrmD [1]; Table 5): 0.31 kcal mol^–1 per heavy atom
LE (Mab TrmD [1]; Table 5): 0.39 kcal mol^–1 per heavy atom
LE (Mab TrmD [1]): 0.39 kcal mol^–1 per heavy atom

SMILES: N#Cc1c(N)n[nH]c1-c1ccc2ccn(Cc3ccc(O)nc3)c2c1 [Compound 26k, 3-Amino-5-(1-((6-hydroxypyridin-3-yl)methyl)-1H-indol-6-yl)-1H-pyrazole-4-carbonitrile]
GE (R^1) (Mab TrmD [1]; Table 5): 0.10 kcal mol^–1 per heavy atom
LE (Mab TrmD [1]; Table 5): 0.32 kcal mol^–1 per heavy atom
LE (Mab TrmD [1]): 0.32 kcal mol^–1 per heavy atom

SMILES: COc1cc(COC(=O)c2cn[nH]c2)cc(-c2cccnc2)c1 [Compound 14, 3-Methoxy-5-(pyridin-3-yl)benzyl 1H-Pyrazole-4-carboxylate]
LE (Mab TrmD [1]; Table 2): 0.31 kcal mol^–1 per heavy atom
LE (Mab TrmD [1]): 0.31 kcal mol^–1 per heavy atom

SMILES: N#Cc1c(N)n[nH]c1-c1ccc2ccn(Cc3cccnc3O)c2c1 [Compound 26j, 3-Amino-5-(1-((2-hydroxypyridin-3-yl)methyl)-1H-indol-6-yl)-1H-pyrazole-4-carbonitrile]
GE (R^1) (Mab TrmD [1]; Table 5): 0.03 kcal mol^–1 per heavy atom
LE (Mab TrmD [1]; Table 5): 0.30 kcal mol^–1 per heavy atom
LE (Mab TrmD [1]): 0.30 kcal mol^–1 per heavy atom

SMILES: CCOC(=O)c1cnn(CC#Cc2cc(COC(=O)c3cn[nH]c3)cc(OC)c2)c1 [Compound 12, Ethyl 1-(3-(3-(((1H-Pyrazole-4-carbonyl)oxy)methyl)-5-methoxyphenyl)prop-2-yn-1-yl)-1H-pyrazole-4-carboxylate]
LE (Mab TrmD [1]; Table 2): 0.24 kcal mol^–1 per heavy atom
LE (Mab TrmD [1]): 0.24 kcal mol^–1 per heavy atom

SMILES: COc1cc(COC(=O)c2cn[nH]c2)cc(N2CCCC2)c1 [Compound 13, 3-Methoxy-5-(pyrrolidin-1-yl)benzyl 1H-Pyrazole-4-carboxylate]
LE (Mab TrmD [1]; Table 2): 0.31 kcal mol^–1 per heavy atom
LE (Mab TrmD [1]): 0.31 kcal mol^–1 per heavy atom

SMILES: COc1ccc(Cn2ccc3ccc(-c4cc(N)n[nH]4)cc32)cc1 [Compound 24a, 5-(1-(4-Methoxybenzyl)-1H-indol-6-yl)-1H-pyrazol-3-amine]
GE (R^1) (Mab TrmD [1]; Table 4): 0.04 kcal mol^–1 per heavy atom
LE (Mab TrmD [1]; Table 4): 0.24 kcal mol^–1 per heavy atom
LE (Mab TrmD [1]): 0.24 kcal mol^–1 per heavy atom

SMILES: N#Cc1cccc(COC(=O)c2cn[nH]c2)c1 [Compound 6, 3-Cyanobenzyl 1H-Pyrazole-4-carboxylate]
LE (Mab TrmD [1]; Table 1): 0.36 kcal mol^–1 per heavy atom

SMILES: N#Cc1c(N)n[nH]c1-c1ccc2cc[nH]c2c1 [Compound 25, 3-Amino-5-(1H-indol-6-yl)-1H-pyrazole-4-carbonitrile]
LE (Mab TrmD [1]; Table 4): 0.43 kcal mol^–1 per heavy atom
GE (Mab TrmD [1]): 0.91 kcal mol^–1 per heavy atom
LE (Mab TrmD [1]): 0.43 kcal mol^–1 per heavy atom

SMILES: O=C(OCc1ccccc1)c1cn[nH]c1 [Compound 3, Benzyl 1H-Pyrazole-4-carboxylate]
LE (Mab TrmD [1]; Table 1): 0.41 kcal mol^–1 per heavy atom
LE (Mab TrmD [1]): 0.41 kcal mol^–1 per heavy atom

SMILES: COc1cccc(Cn2ccc3ccc(-c4cc(N)n[nH]4)cc32)c1 [Compound 24b, 5-(1-(3-Methoxybenzyl)-1H-indol-6-yl)-1H-pyrazol-3-amine]
GE (R^1) (Mab TrmD [1]; Table 4): 0.14 kcal mol^–1 per heavy atom
LE (Mab TrmD [1]; Table 4): 0.28 kcal mol^–1 per heavy atom
GE (Mab TrmD [1]): 0.14 kcal mol^–1 per heavy atom
LE (Mab TrmD [1]): 0.28 kcal mol^–1 per heavy atom

SMILES: CCOc1cccc(COC(=O)c2cn[nH]c2)c1 [Compound 10, 3-Ethoxybenzyl 1H-Pyrazole-4-carboxylate]
LE (Mab TrmD [1]; Table 2): 0.38 kcal mol^–1 per heavy atom
LE (Mab TrmD [1]): 0.38 kcal mol^–1 per heavy atom

SMILES: N#Cc1ccccc1Cn1ccc2ccc(-c3cc(N)n[nH]3)cc21 [Compound 24d, 2-((6-(3-Amino-1H-pyrazol-5-yl)-1H-indol-1-yl)methyl)benzonitrile]
GE (R^1) (Mab TrmD [1]; Table 4): 0.15 kcal mol^–1 per heavy atom
LE (Mab TrmD [1]; Table 4): 0.28 kcal mol^–1 per heavy atom
LE (Mab TrmD [1]): 0.28 kcal mol^–1 per heavy atom

SMILES: Nc1cc(-c2ccc3cc[nH]c3c2)[nH]n1 [Compound 23, 5-(1H-Indol-6-yl)-1H-pyrazol-3-amine]
LE (Mab TrmD [2]; Table 3): 0.36 kcal mol^–1 per heavy atom
LE (Mab TrmD [2]): 0.36 kcal mol^–1 per heavy atom

SMILES: N#Cc1c(N)n[nH]c1-c1ccc2ccn(Cc3cccnc3)c2c1 [Compound 26g, 3-Amino-5-(1-(pyridin-3-ylmethyl)-1H-indol-6-yl)-1H-pyrazole-4-carbonitrile]
fold improvement in binding affinity (decrease of Kd) relative to 26f (Mab TrmD [1]): greater than 2 fold
GE (R^1) (Mab TrmD [1]; Table 5): 0.28 kcal mol^–1 per heavy atom
LE (Mab TrmD [1]; Table 5): 0.38 kcal mol^–1 per heavy atom
LE (Mab TrmD [1]): 0.38 kcal mol^–1 per heavy atom

SMILES: COc1cccc(COC(=O)c2cn[nH]c2)c1 [Compound 7, 3-Methoxybenzyl 1H-Pyrazole-4-carboxylate]
LE (Mab TrmD [1]; Table 1): 0.39 kcal mol^–1 per heavy atom
LE (Mab TrmD [1]): 0.39 kcal mol^–1 per heavy atom

SMILES: CCOC(=O)c1cn[nH]c1 [Compound 1, ethyl 1H-pyrazole-4-carboxylate]
LE (Mab TrmD [1]; Table 1): 0.55 kcal mol^–1 per heavy atom
LE (Mab TrmD [1]): 0.55 kcal mol^–1 per heavy atom

SMILES: CN1CCCC(Cn2ccc3ccc(-c4[nH]nc(N)c4C#N)cc32)C1 (centres unmarked) [Compound 26o, 3-Amino-5-(1-((1-methylpiperidin-3-yl)methyl)-1H-indol-6-yl)-1H-pyrazole-4-carbonitrile]
GE (R^1) (Mab TrmD [1]; Table 5): 0.20 kcal mol^–1 per heavy atom
LE (Mab TrmD [1]; Table 5): 0.35 kcal mol^–1 per heavy atom
LE (Mab TrmD [1]): 0.35 kcal mol^–1 per heavy atom
